Laboratory results published in ChEMBL document CHEMBL1201862, “PubChem BioAssay data set” (2004).
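Where inhibition never reached the appropriate level, the endpoint shown equals the highest concentration tested. Otherwise, values were interpolated linearly from a five-concentration, 48-hour dose response in 96-well plates. Abbreviation: GI50, concentration required for 50% inhibition of growth.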 Activity calls are given as the source filed them. No stated cut-off is given here; in the data, active = GI50 up to about 1.1 µM and inactive = higher. Where a SMILES comes first, the peptide text is derived from it. The star is where a group is joined. Boc = CC(C)(C)OC(=O)*

How the values were obtained:
Experiment in all cases: NCI tumour cell line growth inhibition, 48 h
HCT-15 = tested on: HCT-15
M14 = tested on: M14
CCRF-CEM = tested on: CCRF-CEM
TK-10 = tested on: TK-10
SF-539 = tested on: SF-539
SR = tested on: SR
KM12 = tested on: KM12
U-251 = tested on: U-251
HCC 2998 = tested on: HCC 2998
NCI/ADR-RES = tested on: NCI/ADR-RES
SK-MEL-2 = tested on: SK-MEL-2
UACC-62 = tested on: UACC-62
SN12C = tested on: SN12C
UO-31 = tested on: UO-31
786-0 = tested on: 786-0
RXF 393 = tested on: RXF 393
SK-MEL-5 = tested on: SK-MEL-5
OVCAR-8 = tested on: OVCAR-8
RPMI-8226 = tested on: RPMI-8226
CAKI-1 = tested on: CAKI-1

Compound	GI50 (HCT-15)	GI50 (M14)	GI50 (CCRF-CEM)	GI50 (TK-10)	GI50 (SF-539)	GI50 (SR)	GI50 (KM12)	GI50 (U-251)	GI50 (HCC 2998)	GI50 (NCI/ADR-RES)	GI50 (SK-MEL-2)	GI50 (UACC-62)	GI50 (SN12C)	GI50 (UO-31)	GI50 (786-0)	GI50 (RXF 393)	GI50 (SK-MEL-5)	GI50 (OVCAR-8)	GI50 (RPMI-8226)	GI50 (CAKI-1)
O=C(CCCl)NN=C1NCCCCN1	> 100 µM	> 100 µM (inactive)	> 100 µM (inactive)	> 100 µM (inactive)	> 100 µM (inactive)	> 100 µM (inactive)	> 100 µM (inactive)	> 100 µM (inactive)	> 100 µM (inactive)	> 100 µM (inactive)	> 100 µM (inactive)	> 100 µM (inactive)	> 100 µM (inactive)	> 100 µM (inactive)	> 100 µM (inactive)	> 100 µM (inactive)	> 100 µM (inactive)	> 100 µM (inactive)	> 100 µM (inactive)	–
Cc1ccc(NC(=O)/C(Cc2cc(=O)oc3cc(O)ccc23)=N\NC(C)(C)C)cc1C	> 100 µM	> 100 µM (inactive)	> 100 µM (inactive)	–	> 100 µM (inactive)	> 100 µM (inactive)	> 100 µM (inactive)	> 100 µM (inactive)	29.4 µM (inactive)	> 100 µM (inactive)	> 100 µM (inactive)	> 100 µM (inactive)	> 100 µM (inactive)	> 100 µM (inactive)	> 100 µM (inactive)	> 100 µM (inactive)	> 100 µM (inactive)	> 100 µM (inactive)	> 100 µM (inactive)	> 100 µM (inactive)
CCN(CC)c1ccc(/C=c2\nc(-c3ccccc3)n3c2nc2ccccc23)cc1	1.23 µM	7.46 µM (inactive)	0.544 µM (active)	17 µM (inactive)	1.48 µM (inactive)	1.68 µM (inactive)	6.47 µM (inactive)	2.1 µM (inactive)	2.72 µM (inactive)	3.98 µM (inactive)	15.4 µM (inactive)	10.5 µM (inactive)	16.8 µM (inactive)	13.5 µM (inactive)	4.27 µM (inactive)	16.8 µM (inactive)	3.64 µM (inactive)	9.79 µM (inactive)	1.48 µM (inactive)	0.885 µM (active)
O=C1Oc2ccccc2C(=O)/C1=C/N1C(=O)/C(=C/c2ccc3c(c2)OCO3)SC1=S	15.8 µM	17.9 µM (inactive)	26.1 µM (inactive)	–	11.5 µM (inactive)	15.8 µM (inactive)	16.8 µM (inactive)	10 µM (inactive)	17.3 µM (inactive)	18.5 µM (inactive)	17.2 µM (inactive)	28.2 µM (inactive)	18.2 µM (inactive)	–	43.4 µM (inactive)	17.2 µM (inactive)	15.7 µM (inactive)	17.6 µM (inactive)	14.1 µM (inactive)	17.5 µM (inactive)
O=C(O)C1=CN(c2ccncc2)C(c2ccco2)=CC1c1ccccc1[N+](=O)[O-] (stereo not given)	2.05 µM	10.7 µM (inactive)	2.69 µM (inactive)	6.17 µM (inactive)	3.11 µM (inactive)	1.94 µM (inactive)	1.75 µM (inactive)	6.31 µM (inactive)	1.82 µM (inactive)	22.9 µM (inactive)	15.7 µM (inactive)	15.6 µM (inactive)	13.6 µM (inactive)	10.4 µM (inactive)	2.16 µM (inactive)	6.31 µM (inactive)	6.65 µM (inactive)	17.3 µM (inactive)	2.67 µM (inactive)	16.5 µM (inactive)
CC(OCc1ccccc1)C(NC(=O)C1CSSCC(NC(=O)C(Cc2ccccc2)NC(=O)OCc2ccccc2)C(=O)NC(Cc2ccccc2)C(=O)NC(Cc2cn(C=O)c3ccccc23)C(=O)NC(CCCCNC(=O)OCc2ccccc2)C(=O)NC(C(C)OCc2ccccc2)C(=O)N1)C(N)=O (stereo not given)	32 µM	21.1 µM (inactive)	36.6 µM (inactive)	33.7 µM (inactive)	> 100 µM (inactive)	34 µM (inactive)	3.91 µM (inactive)	25.1 µM (inactive)	7.43 µM (inactive)	> 100 µM (inactive)	13.1 µM (inactive)	72.6 µM (inactive)	> 100 µM (inactive)	78.3 µM (inactive)	24.9 µM (inactive)	97.1 µM (inactive)	24.5 µM (inactive)	75.2 µM (inactive)	5.04 µM (inactive)	46 µM (inactive)
CC(C)(C)OC(=O)NCC(=O)NCC(=O)NCC(=O)NCC(=O)O (Boc-GGGG-OH)	> 100 µM	> 100 µM (inactive)	> 100 µM (inactive)	> 100 µM (inactive)	> 100 µM (inactive)	> 100 µM (inactive)	> 100 µM (inactive)	> 100 µM (inactive)	> 100 µM (inactive)	> 100 µM (inactive)	–	> 100 µM (inactive)	> 100 µM (inactive)	> 100 µM (inactive)	> 100 µM (inactive)	> 100 µM (inactive)	> 100 µM (inactive)	> 100 µM (inactive)	> 100 µM (inactive)	> 100 µM (inactive)
